Laboratory results from the CheMixHub viscosity set.
± gives the uncertainty stated by the source.

Test: xn = mol fraction of the nth substance listed

CCOC(=O)CCl + O=C1CCCCC1
viscosity [mPa·s], 101.3 kPa
Conditions	x1 = 0.1084	x1 = 0.2069	x1 = 0.306	x1 = 0.3993	x1 = 0.5032	x1 = 0.6002	x1 = 0.6945	x1 = 0.7947	x1 = 0.8975
298.15 K	1.745 ± 0.022	1.604 ± 0.02	1.493 ± 0.019	1.403 ± 0.018	1.352 ± 0.017	1.283 ± 0.017	1.23 ± 0.016	1.191 ± 0.016	1.144 ± 0.015
303.15 K	1.595 ± 0.02	1.47 ± 0.019	1.376 ± 0.018	1.298 ± 0.017	1.244 ± 0.016	1.184 ± 0.015	1.139 ± 0.015	1.101 ± 0.015	1.058 ± 0.014
308.15 K	1.444 ± 0.019	1.336 ± 0.017	1.259 ± 0.016	1.19 ± 0.016	1.135 ± 0.015	1.087 ± 0.014	1.047 ± 0.014	1.011 ± 0.013	0.972 ± 0.013

CNC=O + O=C1CCCCC1
viscosity [mPa·s], 101 kPa
Conditions	x1 = 0.0868	x1 = 0.1762	x1 = 0.2682	x1 = 0.3632	x1 = 0.461	x1 = 0.562	x1 = 0.6662	x1 = 0.7738	x1 = 0.885
303.15 K	1.804 ± 0.084	1.786 ± 0.083	1.762 ± 0.082	1.739 ± 0.081	1.714 ± 0.08	1.693 ± 0.079	1.668 ± 0.078	1.646 ± 0.077	1.618 ± 0.076
308.15 K	1.645 ± 0.077	1.63 ± 0.077	1.61 ± 0.076	1.592 ± 0.075	1.57 ± 0.074	1.553 ± 0.073	1.532 ± 0.072	1.513 ± 0.072	1.49 ± 0.071
313.15 K	1.472 ± 0.07	1.463 ± 0.069	1.451 ± 0.069	1.439 ± 0.068	1.425 ± 0.068	1.413 ± 0.067	1.4 ± 0.067	1.387 ± 0.066	1.371 ± 0.065
318.15 K	1.284 ± 0.062	1.284 ± 0.062	1.283 ± 0.062	1.281 ± 0.062	1.278 ± 0.062	1.275 ± 0.061	1.271 ± 0.061	1.267 ± 0.061	1.262 ± 0.061

COC(=O)c1ccccc1 + O=C1CCCCC1
viscosity [mPa·s], 101 kPa
Conditions	x1 = 0.0859	x1 = 0.1728	x1 = 0.2643	x1 = 0.3589	x1 = 0.4562	x1 = 0.5517	x1 = 0.6575	x1 = 0.7664	x1 = 0.8794
303.15 K	1.713 ± 0.017	1.643 ± 0.016	1.593 ± 0.016	1.552 ± 0.015	1.535 ± 0.015	1.548 ± 0.015	1.56 ± 0.02	1.597 ± 0.015	1.646 ± 0.015
313.15 K	1.422 ± 0.015	1.367 ± 0.015	1.332 ± 0.015	1.299 ± 0.014	1.282 ± 0.014	1.292 ± 0.014	1.307 ± 0.014	1.337 ± 0.014	1.375 ± 0.014

CC(C)OCCO + O=C1CCCN1
298.15 K, 101 kPa
Conditions	viscosity [mPa·s]
x1 = 0.0071	13.9 ± 0.14
x1 = 0.0159	13.59 ± 0.14
x1 = 0.0316	12.93 ± 0.13
x1 = 0.0611	11.92 ± 0.12
x1 = 0.1046	10.57 ± 0.11
x1 = 0.1603	9.092 ± 0.1
x1 = 0.2294	7.709 ± 0.089
x1 = 0.2699	7.051 ± 0.083
x1 = 0.3267	6.264 ± 0.076
x1 = 0.3725	5.709 ± 0.071
x1 = 0.4121	5.308 ± 0.068
x1 = 0.4371	5.073 ± 0.066
x1 = 0.4623	4.846 ± 0.063
x1 = 0.5125	4.439 ± 0.059
x1 = 0.5675	4.067 ± 0.055
x1 = 0.6092	3.792 ± 0.052
x1 = 0.6833	3.388 ± 0.047
x1 = 0.7418	3.111 ± 0.044
x1 = 0.7986	2.871 ± 0.041
x1 = 0.8498	2.672 ± 0.039
x1 = 0.888	2.528 ± 0.037
x1 = 0.9155	2.412 ± 0.036
x1 = 0.943	2.304 ± 0.034
x1 = 0.9583	2.252 ± 0.034
x1 = 0.9786	2.193 ± 0.033

CCNCCO + O=C=O
viscosity [mPa·s], 101.3 kPa
Conditions	293.15 K	303.15 K	313.15 K	323.15 K
x2 = 0.09091	51.76 ± 10	29.14 ± 5.8	17.6 ± 3.5	11.32 ± 2.3
x2 = 0.1667	197.6 ± 40	99.53 ± 20	54.38 ± 11	31.96 ± 6.4
x2 = 0.2308	791.4 ± 160	361 ± 73	179.9 ± 36	97.29 ± 19

CCCCOCCO + O=[N+]([O-])c1ccccc1
298.15 K, 101 kPa
Conditions	viscosity [mPa·s]
x2 = 0.0547	2.794 ± 0.031
x2 = 0.1022	2.774 ± 0.031
x2 = 0.2045	2.736 ± 0.029
x2 = 0.3045	2.699 ± 0.027
x2 = 0.4006	2.651 ± 0.026
x2 = 0.4508	2.618 ± 0.025
x2 = 0.4991	2.58 ± 0.024
x2 = 0.5486	2.537 ± 0.023
x2 = 0.594	2.492 ± 0.023
x2 = 0.6924	2.376 ± 0.021
x2 = 0.7994	2.223 ± 0.018
x2 = 0.8996	2.042 ± 0.016
x2 = 0.9389	1.959 ± 0.015

CCCCCCCCCCCC[P+](CCCC)(CCCC)CCCC.N#Cc1ccc[n-]1 + OCCN(CCO)CCO
100 kPa
Conditions	viscosity [mPa·s]
293.15 K, x1 = 0.017	983 ± 150
293.15 K, x1 = 0.244	974 ± 150
293.15 K, x1 = 0.325	926 ± 140
293.15 K, x1 = 0.431	828 ± 120
293.15 K, x1 = 0.538	765 ± 120
293.15 K, x1 = 0.755	675 ± 100
298.15 K, x1 = 0.035	674 ± 100
298.15 K, x1 = 0.054	682 ± 100
298.15 K, x1 = 0.096	687 ± 100
298.15 K, x1 = 0.121	686 ± 100
298.15 K, x1 = 0.177	678 ± 100

CCCCOCCO + OCCO
101 kPa
Conditions	viscosity [mPa·s]
293.15 K, x1 = 0.0517	19.96 ± 0.13
293.15 K, x1 = 0.099	18.69 ± 0.12
293.15 K, x1 = 0.2024	15.74 ± 0.1
293.15 K, x1 = 0.2993	13.1 ± 0.082
293.15 K, x1 = 0.4009	10.68 ± 0.066
293.15 K, x1 = 0.4475	9.72 ± 0.06
293.15 K, x1 = 0.5022	8.702 ± 0.053
293.15 K, x1 = 0.5447	7.996 ± 0.049
293.15 K, x1 = 0.6011	7.158 ± 0.044
293.15 K, x1 = 0.7009	5.905 ± 0.036
293.15 K, x1 = 0.8048	4.826 ± 0.03
293.15 K, x1 = 0.8992	3.996 ± 0.025
293.15 K, x1 = 0.9413	3.661 ± 0.023
298.15 K, x1 = 0.0515	16.18 ± 0.11
298.15 K, x1 = 0.1025	15.09 ± 0.098
298.15 K, x1 = 0.1973	12.9 ± 0.083
298.15 K, x1 = 0.2977	10.71 ± 0.068
298.15 K, x1 = 0.3863	9.036 ± 0.057
298.15 K, x1 = 0.4425	8.124 ± 0.051
298.15 K, x1 = 0.4743	7.652 ± 0.048
298.15 K, x1 = 0.5523	6.625 ± 0.041
298.15 K, x1 = 0.6012	6.061 ± 0.038
298.15 K, x1 = 0.6986	5.082 ± 0.032
298.15 K, x1 = 0.783	4.349 ± 0.027
298.15 K, x1 = 0.8985	3.469 ± 0.022
298.15 K, x1 = 0.9474	3.145 ± 0.02
303.15 K, x1 = 0.0582	12.73 ± 0.085
303.15 K, x1 = 0.098	12.07 ± 0.08
303.15 K, x1 = 0.2036	10.21 ± 0.067
303.15 K, x1 = 0.2996	8.621 ± 0.056
303.15 K, x1 = 0.4	7.191 ± 0.046
303.15 K, x1 = 0.4503	6.57 ± 0.042
303.15 K, x1 = 0.5015	5.989 ± 0.039
303.15 K, x1 = 0.543	5.563 ± 0.036
303.15 K, x1 = 0.6003	5.022 ± 0.033
303.15 K, x1 = 0.703	4.185 ± 0.027
303.15 K, x1 = 0.8036	3.495 ± 0.022
303.15 K, x1 = 0.8935	2.979 ± 0.019
303.15 K, x1 = 0.95	2.691 ± 0.017
